Measured values reported in ChEMBL document CHEMBL4808209 (J Med Chem, 2021).

How the values were obtained:
[1] = Inhibition of human PDE4A1A at 0.1 to 1 uM; settings: dose 0.1-1 µM
[2] = system: GABA-A receptor; anion channel; test: Inhibition of GABA A receptor (unknown origin) at 0.1 to 1 uM; type: protein-complex assay; settings: human, dose 0.1-1 µM
[3] = Inhibition of GABA chloride/TBOB site (unknown origin) at 0.1 to 1 uM; settings: human, dose 0.1-1 µM
[4] = biological target: Beta-2 adrenergic receptor (Homo sapiens, UniProt P07550); test: Inhibition of human adrenergic beta 2 receptor at 0.1 to 1 uM; settings: dose 0.1-1 µM
Chain of Beta-2 adrenergic receptor (P07550 whole entry): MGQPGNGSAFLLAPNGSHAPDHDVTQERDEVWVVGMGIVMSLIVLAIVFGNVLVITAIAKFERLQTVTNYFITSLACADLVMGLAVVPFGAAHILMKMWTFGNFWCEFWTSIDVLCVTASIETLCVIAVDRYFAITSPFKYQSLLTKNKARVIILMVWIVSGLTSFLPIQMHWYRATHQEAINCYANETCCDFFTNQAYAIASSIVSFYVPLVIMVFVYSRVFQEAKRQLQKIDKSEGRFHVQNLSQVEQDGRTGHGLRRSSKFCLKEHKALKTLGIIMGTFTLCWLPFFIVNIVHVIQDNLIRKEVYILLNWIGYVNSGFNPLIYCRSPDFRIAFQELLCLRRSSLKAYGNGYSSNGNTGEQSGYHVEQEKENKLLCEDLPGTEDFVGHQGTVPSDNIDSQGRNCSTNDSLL

[5] = Volume of distribution in Beagle dog at 1 mg/kg, iv measured after 24 hrs; type: ADME, organism-based, Canis lupus familiaris; settings: in vivo, read-out: Vdss
[6] = biological target: Thromboxane A2 receptor (Homo sapiens, UniProt P21731); test: Inhibition of human thromboxane A2 at 0.1 to 1 uM; settings: dose 0.1-1 µM
Chain of Thromboxane A2 receptor (P21731 whole entry): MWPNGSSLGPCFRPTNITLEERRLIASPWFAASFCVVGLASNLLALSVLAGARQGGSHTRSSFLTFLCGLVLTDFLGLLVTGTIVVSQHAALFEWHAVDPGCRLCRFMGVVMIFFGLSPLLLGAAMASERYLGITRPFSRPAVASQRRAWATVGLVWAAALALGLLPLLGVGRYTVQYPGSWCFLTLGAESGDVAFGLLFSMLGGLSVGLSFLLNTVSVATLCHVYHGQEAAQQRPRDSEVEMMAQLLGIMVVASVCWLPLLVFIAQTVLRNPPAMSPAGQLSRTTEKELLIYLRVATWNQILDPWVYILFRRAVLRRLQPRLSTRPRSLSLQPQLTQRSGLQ

[7] = Inhibition of calcium activated potassium channel (unknown origin) at 0.1 to 1 uM; settings: human, dose 0.1-1 µM
[8] = biological target: 5-hydroxytryptamine receptor 6 (Homo sapiens, UniProt P50406); test: Inhibition of human 5HT6 receptor at 0.1 to 1 uM; settings: dose 0.1-1 µM
Chain of 5-hydroxytryptamine receptor 6 (P50406 whole entry): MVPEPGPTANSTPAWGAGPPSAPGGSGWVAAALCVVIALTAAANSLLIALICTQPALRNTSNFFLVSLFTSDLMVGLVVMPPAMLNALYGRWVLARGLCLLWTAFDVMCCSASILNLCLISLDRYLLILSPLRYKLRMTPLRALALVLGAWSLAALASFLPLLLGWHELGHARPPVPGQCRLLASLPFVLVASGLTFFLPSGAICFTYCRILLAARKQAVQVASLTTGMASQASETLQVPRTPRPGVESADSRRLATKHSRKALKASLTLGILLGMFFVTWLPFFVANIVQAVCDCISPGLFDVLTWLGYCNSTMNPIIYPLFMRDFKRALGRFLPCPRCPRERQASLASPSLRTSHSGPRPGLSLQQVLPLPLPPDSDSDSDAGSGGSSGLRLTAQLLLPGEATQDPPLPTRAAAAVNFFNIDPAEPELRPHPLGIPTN

[9] = biological target: D(1A) dopamine receptor (Homo sapiens, UniProt P21728); test: Inhibition of human dopamine D1 receptor at 0.1 to 1 uM; settings: dose 0.1-1 µM
Chain of D(1A) dopamine receptor (P21728 whole entry): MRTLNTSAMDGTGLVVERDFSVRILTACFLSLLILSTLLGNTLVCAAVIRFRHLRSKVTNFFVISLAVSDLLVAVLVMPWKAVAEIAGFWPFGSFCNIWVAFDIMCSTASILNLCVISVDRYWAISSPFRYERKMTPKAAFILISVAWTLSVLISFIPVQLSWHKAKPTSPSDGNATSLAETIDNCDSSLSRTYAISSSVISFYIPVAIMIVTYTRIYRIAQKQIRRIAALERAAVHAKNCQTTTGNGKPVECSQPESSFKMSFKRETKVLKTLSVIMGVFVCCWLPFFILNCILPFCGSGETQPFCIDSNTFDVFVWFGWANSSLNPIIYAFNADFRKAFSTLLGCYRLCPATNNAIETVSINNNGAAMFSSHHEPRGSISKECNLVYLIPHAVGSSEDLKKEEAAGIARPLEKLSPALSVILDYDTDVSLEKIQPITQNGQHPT

[10] = biological target: Endothelin-1 receptor (Homo sapiens, UniProt P25101); test: Inhibition of human ETA receptor at 0.1 to 1 uM; settings: dose 0.1-1 µM
Chain of Endothelin-1 receptor (P25101 whole entry): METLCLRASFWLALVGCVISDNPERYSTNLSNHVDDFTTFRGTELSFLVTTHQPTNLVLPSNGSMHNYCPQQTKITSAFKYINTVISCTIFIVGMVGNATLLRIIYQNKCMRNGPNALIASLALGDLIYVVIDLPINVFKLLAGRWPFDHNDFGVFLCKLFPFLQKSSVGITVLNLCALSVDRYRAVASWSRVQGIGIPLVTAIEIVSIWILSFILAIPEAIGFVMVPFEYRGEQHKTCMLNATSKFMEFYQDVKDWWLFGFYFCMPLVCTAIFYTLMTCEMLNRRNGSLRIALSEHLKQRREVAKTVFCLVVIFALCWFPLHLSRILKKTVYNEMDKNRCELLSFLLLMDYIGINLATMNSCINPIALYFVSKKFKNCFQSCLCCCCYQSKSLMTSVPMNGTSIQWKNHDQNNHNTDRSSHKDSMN

[11] = biological target: D(2) dopamine receptor (Homo sapiens, UniProt P14416); test: Inhibition of human dopamine D2S receptor at 0.1 to 1 uM; settings: dose 0.1-1 µM
Chain of D(2) dopamine receptor (P14416 whole entry): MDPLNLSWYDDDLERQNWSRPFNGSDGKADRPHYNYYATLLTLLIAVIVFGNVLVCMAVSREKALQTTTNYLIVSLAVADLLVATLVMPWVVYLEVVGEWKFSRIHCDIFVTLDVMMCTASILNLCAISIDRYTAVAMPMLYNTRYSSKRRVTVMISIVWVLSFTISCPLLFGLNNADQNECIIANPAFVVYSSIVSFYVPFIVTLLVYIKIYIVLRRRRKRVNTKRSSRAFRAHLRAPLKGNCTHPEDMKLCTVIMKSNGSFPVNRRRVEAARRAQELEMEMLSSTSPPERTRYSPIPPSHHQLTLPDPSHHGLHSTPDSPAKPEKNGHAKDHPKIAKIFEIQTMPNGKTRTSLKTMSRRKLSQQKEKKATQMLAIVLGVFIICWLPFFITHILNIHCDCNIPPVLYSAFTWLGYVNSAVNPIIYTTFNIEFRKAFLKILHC

[12] = Clearance in Beagle dog at 1 mg/kg, iv measured after 24 hrs relative to hepatic blood flow; type: ADME, organism-based, Canis lupus familiaris; settings: in vivo

Compound: CCN1C(=O)N(c2c(F)c(OC)cc(OC)c2F)Cc2cnc3[nH]c(CN4CCOCC4)cc3c21 [PEMIGATINIB]
- inhibition (INH) [1]: Not Active
- inhibition (INH) [2]: Not Active
- inhibition (INH) [3]: Not Active
- inhibition (INH) [4]: Not Active
- Vd [5]: 3.49 L/kg
- inhibition (INH) [6]: Not Active
- inhibition (INH) [7]: Not Active
- inhibition (INH) [8]: Not Active
- inhibition (INH) [9]: Not Active
- inhibition (INH) [10]: Not Active
- inhibition (INH) [11]: Not Active
- CL [12]: 10%
